The results in this text go back to patent publication US20240158392A1 (Janssen Biotech, Inc., priority 2021, published 2024).

The target in the assay is SIK2 (Homo sapiens, UniProt Q9H0K1). Nature of the assay: SIK2 Enzymatic Assay High Version 2 (High ATP). The note with it: enzyme 6 nM, 6 mM ATP and 400 μM HDAC5tide (each 2× final concentration); 30 minutes pre-incubation, 2 hours; ADP-Glo Max luminescence; read-out: SIK2 high ATP IC50 (μM) (Test Example 2). Format: biochemical. An outline of the steps: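 At room temperature, enzyme (6 nM, 2× final) was preincubated with compound for 30 min, then 6 mM ATP and 400 μM HDAC5tide (both 2× final) were added for 2 h. ADP formed was measured by ADP-Glo Max (2 h reagent, 1 h detection) using luminescence.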

Structures are written as SMILES.

Sequence of SIK2 (Q9H0K1 whole entry, species assumed): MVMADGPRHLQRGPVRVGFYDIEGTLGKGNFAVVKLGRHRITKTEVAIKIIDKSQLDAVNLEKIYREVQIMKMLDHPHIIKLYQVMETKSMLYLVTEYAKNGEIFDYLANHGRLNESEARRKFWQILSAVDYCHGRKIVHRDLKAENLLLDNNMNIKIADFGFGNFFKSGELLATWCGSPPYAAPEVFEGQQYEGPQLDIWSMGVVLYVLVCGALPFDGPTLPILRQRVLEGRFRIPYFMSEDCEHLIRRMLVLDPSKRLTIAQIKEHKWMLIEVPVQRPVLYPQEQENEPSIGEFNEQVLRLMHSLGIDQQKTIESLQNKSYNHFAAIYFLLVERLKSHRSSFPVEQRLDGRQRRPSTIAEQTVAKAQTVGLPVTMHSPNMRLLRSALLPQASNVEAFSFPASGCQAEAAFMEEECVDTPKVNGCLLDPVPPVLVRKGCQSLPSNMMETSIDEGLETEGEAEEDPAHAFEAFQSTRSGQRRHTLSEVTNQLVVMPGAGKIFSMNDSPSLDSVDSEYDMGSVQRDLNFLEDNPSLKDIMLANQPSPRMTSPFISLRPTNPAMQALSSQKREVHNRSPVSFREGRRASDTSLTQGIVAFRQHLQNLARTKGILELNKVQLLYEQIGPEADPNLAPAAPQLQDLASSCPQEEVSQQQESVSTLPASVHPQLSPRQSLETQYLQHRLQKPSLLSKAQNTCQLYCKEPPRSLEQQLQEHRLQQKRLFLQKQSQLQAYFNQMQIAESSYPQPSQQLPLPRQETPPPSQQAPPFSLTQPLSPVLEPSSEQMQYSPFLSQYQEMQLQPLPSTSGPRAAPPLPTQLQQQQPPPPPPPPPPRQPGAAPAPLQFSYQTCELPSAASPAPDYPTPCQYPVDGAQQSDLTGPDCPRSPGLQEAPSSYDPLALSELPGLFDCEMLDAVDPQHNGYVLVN

For the molecule `CCn1nc(Nc2cc3cc(-c4cc(C)ncc4OCC(C)(C)O)ccn3n2)cc(C)c1=O` [Example 247, 2-ethyl-6-[[5-[5-(2-hydroxy-2-methyl-propoxy)-2-methyl-4-pyridyl]pyrazolo[1,5-a]pyridin-2-yl]amino]-4-methyl-pyridazin-3-one], the half-inhibitory concentration (IC50) turned out to be 0.00712 µM.
With `Cc1cc(-c2ccn3nc(NC(=O)C4CC4)cc3c2)c(OC[C@@]23CN[C@@H](CO2)C3)cn1` [Example 248, N-[5-[2-methyl-5-[[(1R,4R)-5-oxa-2-azabicyclo[2.2.1]heptan-4-yl]methoxy]-4-pyridyl]pyrazolo[1,5-a]pyridin-2-yl]cyclopropanecarboxamide], the IC50 came out at 0.00712 µM.
Next, `Cc1cc(-c2ccn3nc(NC(=O)C4CC4)cc3c2)c(OC[C@]23C[C@H](CO2)N(C)C3)cn1` [Example 249, N-[5-[2-methyl-5-[[(1R,4R)-2-methyl-5-oxa-2-azabicyclo[2.2.1]heptan-4-yl]methoxy]-4-pyridyl]pyrazolo[1,5-a]pyridin-2-yl]cyclopropanecarboxamide]: 0.0237 µM; `Cc1cc(-c2ccn3nc(NC(=O)[C@@H]4C[C@H]4C)cc3c2)c(OC[C@]23C[C@H](CO2)N(C)C3)cn1` [Example 250, (1R,2R)-2-methyl-N-[5-[2-methyl-5-[[(1R,4R)-2-methyl-5-oxa-2-azabicyclo[2.2.1]heptan-4-yl]methoxy]-4-pyridyl]pyrazolo[1,5-a]pyridin-2-yl]cyclopropanecarboxamide]: 0.0217 µM.
With `Cc1cnc(Nc2cc3cc(-c4cc(C)ncc4OC[C@]45CN[C@H](CO4)C5)ccn3n2)cn1` [Example 251, 5-[2-methyl-5-[[(1S,4S)-5-oxa-2-azabicyclo[2.2.1]heptan-4-yl]methoxy]-4-pyridyl]-N-(5-methylpyrazin-2-yl)pyrazolo[1,5-a]pyridin-2-amine], the IC50 came to 0.00284 µM.
Next, `Cc1cc(Nc2cc3cc(-c4cc(C(F)(F)F)ncc4OC[C@@]45CN[C@@H](CO4)C5)ccn3n2)nc(C)n1` [Example 252, N-(2,6-dimethylpyrimidin-4-yl)-5-[5-[[(1R,4R)-5-oxa-2-azabicyclo[2.2.1]heptan-4-yl]methoxy]-2-(trifluoromethyl)-4-pyridyl]pyrazolo[1,5-a]pyridin-2-amine]: 0.0284 µM.
Next, `Cc1cc(-c2ccn3nc(NC(=O)C4CC4)cc3c2)c(OC[C@]23CN[C@H](CO2)C3)cn1` [Example 253, N-[5-[2-methyl-5-[[(1S,4S)-5-oxa-2-azabicyclo[2.2.1]heptan-4-yl]methoxy]-4-pyridyl]pyrazolo[1,5-a]pyridin-2-yl]cyclopropanecarboxamide]: 0.00479 µM; `Cc1cc(-c2ccn3nc(Nc4ccc(C)nn4)cc3c2)c(OC[C@@]23CN[C@@H](CO2)C3)cn1` [Example 254, 5-[2-methyl-5-[[(1R,4R)-5-oxa-2-azabicyclo[2.2.1]heptan-4-yl]methoxy]-4-pyridyl]-N-(6-methylpyridazin-3-yl)pyrazolo[1,5-a]pyridin-2-amine]: 0.00637 µM.
Next, `Cc1cc(-c2ccn3nc(Nc4ccc(C5CC5)nn4)cc3c2)c(OC[C@@]23CN[C@@H](CO2)C3)cn1` [Example 255, N-(6-cyclopropylpyridazin-3-yl)-5-[2-methyl-5-[[(1R,4R)-5-oxa-2-azabicyclo[2.2.1]heptan-4-yl]methoxy]-4-pyridyl]pyrazolo[1,5-a]pyridin-2-amine]: 0.00704 µM.
As to `Cc1cc(-c2ccn3nc(Nc4ccc(C)nn4)cc3c2)c(OC[C@]23C[C@H](CO2)N(C)C3)cn1` [Example 256, 5-[2-methyl-5-[[(1R,4R)-2-methyl-5-oxa-2-azabicyclo[2.2.1]heptan-4-yl]methoxy]-4-pyridyl]-N-(6-methylpyridazin-3-yl)pyrazolo[1,5-a]pyridin-2-amine], the 50% inhibitory concentration (IC50) turned out to be 0.0198 µM.
Next, `Cc1cnc(Nc2cc3cc(-c4cc(C)ncc4OC[C@@]45CN[C@@H](CO4)C5)ccn3n2)cn1` [Example 257, 5-[2-methyl-5-[[(1R,4R)-5-oxa-2-azabicyclo[2.2.1]heptan-4-yl]methoxy]-4-pyridyl]-N-(5-methylpyrazin-2-yl)pyrazolo[1,5-a]pyridin-2-amine]: 0.00446 µM; `Cc1cc(-c2ccn3nc(Nc4cc(C)nc(C)n4)cc3c2)c(OCC(O)(C(F)(F)F)C(F)(F)F)cn1` [Example 259, 2-[[4-[2-[(2,6-dimethylpyrimidin-4-yl)amino]pyrazolo[1,5-a]pyridin-5-yl]-6-methyl-3-pyridyl]oxymethyl]-1,1,1,3,3,3-hexafluoro-propan-2-ol]: 0.0153 µM.
Next, `Cc1cc(-c2ccn3nc(Nc4ccc5nccn5n4)cc3c2)c(OCC(C)(C)O)cn1` [Example 260, 1-[[4-[2-(imidazo[1,2-b]pyridazin-6-ylamino)pyrazolo[1,5-a]pyridin-5-yl]-6-methyl-3-pyridyl]oxy]-2-methyl-propan-2-ol]: 0.0183 µM; `Cc1cc(-c2ccn3nc(Nc4cc(C)nc(C(C)(C)C)n4)cc3c2)c(OCC(C)(C)O)cn1` [Example 261, 1-[[4-[2-[(2-tert-butyl-6-methyl-pyrimidin-4-yl)amino]pyrazolo[1,5-a]pyridin-5-yl]-6-methyl-3-pyridyl]oxy]-2-methyl-propan-2-ol]: 0.0239 µM.
Next, `Cc1cc(-c2ccn3nc(Nc4cc(C)nc(C)n4)cc3c2)c(OCC(C)(C)C#N)cn1` [Example 262, 3-[[4-[2-[(2,6-dimethylpyrimidin-4-yl)amino]pyrazolo[1,5-a]pyridin-5-yl]-6-methyl-3-pyridyl]oxy]-2,2-dimethyl-propanenitrile]: 0.00231 µM; `Cc1cc(-c2ccn3nc(Nc4cc(C)c(=O)n(CC5CC5)n4)cc3c2)c(OCC(C)(C)O)cn1` [Example 265, 2-(cyclopropylmethyl)-6-[[5-[5-(2-hydroxy-2-methyl-propoxy)-2-methyl-4-pyridyl]pyrazolo[1,5-a]pyridin-2-yl]amino]-4-methyl-pyridazin-3-one]: 0.00366 µM.
`Cc1cc(-c2ccn3nc(Nc4cc(C)nc(C)n4)cc3c2)c(O[C@H]2CC[C@H](S(C)(=O)=O)CC2)cn1` [Example 266, N-(2,6-dimethylpyrimidin-4-yl)-5-[2-methyl-5-(4-methylsulfonylcyclohexoxy)-4-pyridyl]pyrazolo[1,5-a]pyridin-2-amine]: the IC50 came out at 0.00338 µM.
Next, `COc1cc(Nc2cc3cc(-c4cc(C)ncc4OCC(C)(C)C#N)ccn3n2)cc(OC)c1C(=O)NC1CC1` [Example 268, 4-[[5-[5-(2-cyano-2-methyl-propoxy)-2-methyl-4-pyridyl]pyrazolo[1,5-a]pyridin-2-yl]amino]-N-cyclopropyl-2,6-dimethoxy-benzamide]: 0.00138 µM; `Cc1cc(-c2ccn3nc(Nc4cc(C)c(=O)n(C)n4)cc3c2)c(OCC(C)(C)C#N)cn1` [Example 269, 3-[[4-[2-[(1,5-dimethyl-6-oxo-pyridazin-3-yl)amino]pyrazolo[1,5-a]pyridin-5-yl]-6-methyl-3-pyridyl]oxy]-2,2-dimethyl-propanenitrile]: 0.00153 µM.
Next, `COc1ccccc1COc1cnc(C)cc1-c1ccn2nc(Nc3cc(C)nc(C)n3)cc2c1` [Example 271, N-(2,6-dimethylpyrimidin-4-yl)-5-[5-[(2-methoxyphenyl)methoxy]-2-methyl-4-pyridyl]pyrazolo[1,5-a]pyridin-2-amine]: 0.0234 µM.
Regarding `Cc1cc(-c2ccn3nc(Nc4cc(C)nc(C)n4)cc3c2)c(OCc2cccc(O)c2)cn1` [Example 272, 3-[[4-[2-[(2,6-dimethylpyrimidin-4-yl)amino]pyrazolo[1,5-a]pyridin-5-yl]-6-methyl-3-pyridyl]oxymethyl]phenol], the IC50 is 0.00876 µM.
Next, `CCC1(COc2cnc(C)cc2-c2ccn3nc(Nc4cc(C)nc(C)n4)cc3c2)COC1` [Example 273, N-(2,6-dimethylpyrimidin-4-yl)-5-[5-[(3-ethyloxetan-3-yl)methoxy]-2-methyl-4-pyridyl]pyrazolo[1,5-a]pyridin-2-amine]: 0.037 µM.
Next, `Cc1cc(-c2ccn3nc(Nc4cc(C)nc(C)n4)cc3c2)c(OCC2(CO)COC2)cn1` [Example 274, [3-[[4-[2-[(2,6-dimethylpyrimidin-4-yl)amino]pyrazolo[1,5-a]pyridin-5-yl]-6-methyl-3-pyridyl]oxymethyl]oxetan-3-yl]methanol]: 0.0291 µM.
Next, `Cc1cc(-c2ccn3nc(Nc4cc(C)nc(C)n4)cc3c2)c(OCC2(C#N)COC2)cn1` [Example 275, 3-[[4-[2-[(2,6-dimethylpyrimidin-4-yl)amino]pyrazolo[1,5-a]pyridin-5-yl]-6-methyl-3-pyridyl]oxymethyl]oxetane-3-carbonitrile]: 0.0313 µM.
Regarding `Cc1cc(-c2ccn3nc(Nc4cc(C)nc(C)n4)cc3c2)c(O[C@H]2CCNC2)cn1` [Example 276, N-(2,6-dimethylpyrimidin-4-yl)-5-[2-methyl-5-[(3S)-pyrrolidin-3-yl]oxy-4-pyridyl]pyrazolo[1,5-a]pyridin-2-amine], the IC50 amounted to 0.00921 µM.
Next, `Cc1cc(-c2ccn3nc(NC(=O)C4CC4)cc3c2)c(O[C@H]2CCNC2)cn1` [Example 277, N-[5-[2-methyl-5-[(3S)-pyrrolidin-3-yl]oxy-4-pyridyl]pyrazolo[1,5-a]pyridin-2-yl]cyclopropanecarboxamide]: 0.0139 µM; `Cc1cc(-c2ccn3nc(Nc4cc(C)nc(C)n4)cc3c2)c(O[C@@H]2CNC[C@@H]2F)cn1` [Example 278, N-(2,6-dimethylpyrimidin-4-yl)-5-[5-[(3R,4S)-4-fluoropyrrolidin-3-yl]oxy-2-methyl-4-pyridyl]pyrazolo[1,5-a]pyridin-2-amine]: 0.0025 µM; `Cc1cc(-c2ccn3nc(NC(=O)C4CC4)cc3c2)c(O[C@@H]2CNC[C@@H]2F)cn1` [Example 279, N-[5-[5-[(3R,4S)-4-fluoropyrrolidin-3-yl]oxy-2-methyl-4-pyridyl]pyrazolo[1,5-a]pyridin-2-yl]cyclopropanecarboxamide]: 0.0032 µM.
